Earlier results as cited in patent US20090155355A1, “Particles in a capsule” (Multi Formulations Ltd., priority 2007, published 2009).
“Also recorded” adds a separate entry of the source.

What was measured:
[1] = oral, single 400 mg dose, humans
[2] = combination with acetaminophen or ibuprofen
[3] = in vivo

SMILES: CC(C)Cc1ccc(C(C)C(=O)O)cc1 (stereo not drawn) [ibuprofen, Ibuprofen]
- time to maximum plasma concentration [1]: about 1.3 hrs

SMILES: Cn1c(=O)c2c(ncn2C)n(C)c1=O [caffeine, Caffeine]
- half-life (mean time) (highly variable): about 5 hrs
- time to peak levels (in vivo): about 1 hr
- effect on analgesics [2]: enhance and prolong the effects of acetaminophen; also recorded: enhance the analgesic effects of ibuprofen

SMILES: CC(=O)Nc1ccc(O)cc1 [Acetaminophen]
- plasma half-life [3]: about 2 hrs
- time of peak plasma levels [3]: 0.5 to 2 h
